molecular target: T1, human PAH with the R408W mutation (Homo sapiens, UniProt P00439, R408W); assay: Cell Based Phenylalanine Flux Assay; conditions: A375 cells expressing R408W PAH; 24 hrs with compound, then 20 µM sepiapterin and 800 µM 13C9,15N-Phenylalanine for 4 hours; 13C-Tyrosine by LC-MS; average where tested multiple times; read-out: AC50;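 note: after compound treatment, cells received sepiapterin plus isotope-labelled Phenylalanine for 4 hours, then labelled Tyrosine in the medium was quantified, 10-point 2-fold dilution series run in duplicate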
T1 construct: expressed in transfected cells
T1 sequence (P00439 1-452 R408W): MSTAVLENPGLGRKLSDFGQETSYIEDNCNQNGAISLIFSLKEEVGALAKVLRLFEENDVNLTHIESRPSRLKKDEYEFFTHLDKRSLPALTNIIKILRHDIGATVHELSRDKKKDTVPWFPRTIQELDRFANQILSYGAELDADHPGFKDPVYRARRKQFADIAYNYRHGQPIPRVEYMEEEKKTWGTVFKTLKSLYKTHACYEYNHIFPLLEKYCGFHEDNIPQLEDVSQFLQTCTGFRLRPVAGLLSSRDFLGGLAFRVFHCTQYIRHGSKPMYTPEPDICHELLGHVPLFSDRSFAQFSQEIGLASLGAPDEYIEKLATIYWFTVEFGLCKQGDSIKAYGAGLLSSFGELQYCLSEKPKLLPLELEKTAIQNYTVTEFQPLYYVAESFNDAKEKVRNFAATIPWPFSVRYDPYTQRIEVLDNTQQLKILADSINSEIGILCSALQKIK

Row | Compound | AC50 [µM]
1 | Cn1cc(-c2nc(C3CC3)c(C(=O)N3CCc4[nH]cnc4C3c3cc4ccccn4n3)o2)cn1 (stereo not shown) | 1 to 5
2 | Cn1cncc1-c1nnc(C(=O)N2CCc3[nH]cnc3C2c2cc3c(F)cccn3n2)o1 (stereo not shown) | 1 to 5
3 | O=C(c1cnc(-c2ccccn2)o1)N1CCc2[nH]cnc2C1c1cc2ccccn2n1 (stereo not shown) | > 5
4 | Cc1nnc(C(=O)N2CCc3[nH]cnc3C2c2cc3cccc(Cl)n3n2)o1 (stereo not shown) | 1 to 5
5 | Cc1ccn2nc(C3c4nc[nH]c4CCN3C(=O)c3nnc(-c4cnn(C)c4)o3)cc2c1 (stereo not shown) | > 5
6 | Cc1nnc(C(=O)N2CCc3[nH]cnc3C2c2cc3c(F)cccn3n2)s1 (stereo not shown) | 1 to 5

same assay, conditions: A375 cells expressing human PAH R408W; 24 hrs compound incubation; 13C-Tyrosine by LC-MS; average where tested multiple times; read-out: AC50

Row | Compound | AC50 [µM]
7 | FC(F)c1nnc(N2CCc3[nH]cnc3[C@@H]2c2cc3cccc(C(F)F)n3n2)o1 [Example 2220, (R)-2-(difluoromethyl)-5-(4-(7-(difluoromethyl)pyrazolo[1,5-a]pyridin-2-yl)-1,4,6,7-tetrahydro-5H-imidazo[4,5-c]pyridin-5-yl)-1,3,4-oxadiazole] | > 5
8 | FC(F)c1cccn2nc([C@@H]3c4nc[nH]c4CCN3c3nnc(C4CCC4)o3)cc12 [Example 2485, (S)-2-cyclobutyl-5-(4-(4-(difluoromethyl)pyrazolo[1,5-a]pyridin-2-yl)-6,7-dihydro-1H-imidazo[4,5-c]pyridin-5(4H)-yl)-1,3,4-oxadiazole] | 1 to 5
9 | Cn1nc(C(F)(F)F)nc1C(=O)N1CCc2[nH]cnc2[C@H]1c1cc2ccccn2n1 [Example 2372, (S)-(1-methyl-3-(trifluoromethyl)-1H-1,2,4-triazol-5-yl)(4-(pyrazolo[1,5-a]pyridin-2-yl)-6,7-dihydro-1H-imidazo[4,5-c]pyridin-5(4H)-yl)methanone] | 1 to 5
10 | O=C(c1nc2ccccc2s1)N1CCc2[nH]cnc2[C@@H]1c1cc2ccccn2n1 [Example 2001, (R)-benzo[d]thiazol-2-yl(4-(pyrazolo[1,5-a]pyridin-2-yl)-1,4,6,7-tetrahydro-5H-imidazo[4,5-c]pyridin-5-yl)methanone] | > 5
11 | Nc1cnc(N2CCc3[nH]cnc3[C@H]2c2cc3c(F)cccn3n2)nc1 [Example 1837, (S)-2-(4-(4-fluoropyrazolo[1,5-a]pyridin-2-yl)-1,4,6,7-tetrahydro-5H-imidazo[4,5-c]pyridin-5-yl)pyrimidin-5-amine] | 0.5 to 1
12 | Cc1cccn2nc([C@@H]3c4nc[nH]c4CCN3c3nnc(-c4ncccc4F)o3)cc12 [Example 2341, (S)-2-(3-fluoropyridin-2-yl)-5-(4-(4-methylpyrazolo[1,5-a]pyridin-2-yl)-1,4,6,7-tetrahydro-5H-imidazo[4,5-c]pyridin-5-yl)-1,3,4-oxadiazole] | 0.5 to 1
13 | FC(F)c1cccc2cc([C@@H]3c4nc[nH]c4CCN3c3nnc(-c4cnccn4)o3)nn12 [Example 2521, (S)-2-(4-(7-(difluoromethyl)pyrazolo[1,5-a]pyridin-2-yl)-1,4,6,7-tetrahydro-5H-imidazo[4,5-c]pyridin-5-yl)-5-(pyrazin-2-yl)-1,3,4-oxadiazole] | 1 to 5
14 | Cn1cc(-c2nnc(C(=O)N3CCc4[nH]cnc4[C@H]3c3cc4ccc(Br)cn4n3)o2)cn1 [Example 2488, (S)-(4-(6-bromopyrazolo[1,5-a]pyridin-2-yl)-1,4,6,7-tetrahydro-5H-imidazo[4,5-c]pyridin-5-yl)(5-(1-methyl-1H-pyrazol-4-yl)-1,3,4-oxadiazol-2-yl)methanone] | 1 to 5

same assay, conditions: A375 cells expressing human R408W PAH; 24 hrs compound incubation; 13C-Tyrosine by LC-MS; average where tested multiple times; read-out: AC50

Row | Compound | AC50 [µM]
15 | Cc1cccc2cc([C@@H]3c4nc[nH]c4CCN3C(=O)c3oc(C(C)(C)O)nc3C(F)(F)F)nn12 [Example 1150, (S)-(2-(2-hydroxypropan-2-yl)-4-(trifluoromethyl)oxazol-5-yl)(4-(7-methylpyrazolo[1,5-a]pyridin-2-yl)-6,7-dihydro-1H-imidazo[4,5-c]pyridin-5(4H)-yl)methanone] | < 0.5
16 | Cc1nc([C@@H](C)O)oc1C(=O)N1CCc2[nH]cnc2[C@@H]1c1cc2c(C)cccn2n1 [Example 753, (2-((R)-1-hydroxyethyl)-4-methyloxazol-5-yl)((R)-4-(4-methylpyrazolo[1,5-a]pyridin-2-yl)-6,7-dihydro-1H-imidazo[4,5-c]pyridin-5(4H)-yl)methanone] | 1 to 5
17 | O=C(c1ccnn1C(F)F)N1CCc2[nH]cnc2[C@H]1c1cc2cccc(Cl)n2n1 [Example 1064, (S)-(4-(7-chloropyrazolo[1,5-a]pyridin-2-yl)-6,7-dihydro-1H-imidazo[4,5-c]pyridin-5(4H)-yl)(1-(difluoromethyl)-1H-pyrazol-5-yl)methanone] | 0.5 to 1
18 | Cn1nc(Cl)cc1C(=O)N1CCc2[nH]cnc2[C@H]1c1cc2ccccn2n1 [Example 680, (S)-(3-chloro-1-methyl-1H-pyrazol-5-yl)(4-(pyrazolo[1,5-a]pyridin-2-yl)-6,7-dihydro-1H-imidazo[4,5-c]pyridin-5(4H)-yl)methanone] | < 0.5
19 | Cc1nc(C(C)(C)F)oc1C(=O)N1CCc2[nH]cnc2[C@H]1c1cc2cccc(F)n2n1 [Example 1278, (S)-(2-(2-fluoropropan-2-yl)-4-methyloxazol-5-yl)(4-(7-fluoropyrazolo[1,5-a]pyridin-2-yl)-6,7-dihydro-1H-imidazo[4,5-c]pyridin-5(4H)-yl)methanone] | < 0.5
20 | O=C(c1ccnn1C(F)F)N1CCc2[nH]cnc2[C@H]1c1cc2cc(F)ccn2n1 [Example 1092, (S)-(1-(difluoromethyl)-1H-pyrazol-5-yl)(4-(5-fluoropyrazolo[1,5-a]pyridin-2-yl)-6,7-dihydro-1H-imidazo[4,5-c]pyridin-5(4H)-yl)methanone] | 0.5 to 1
21 | O=C(c1ccnn1C(F)F)N1CCc2[nH]cnc2[C@H]1c1cc2c(Cl)cccn2n1 [Example 782, (S)-(4-(4-chloropyrazolo[1,5-a]pyridin-2-yl)-6,7-dihydro-1H-imidazo[4,5-c]pyridin-5(4H)-yl)(1-(difluoromethyl)-1H-pyrazol-5-yl)methanone] | < 0.5
22 | O=C(c1nnc(-c2ccn(C(F)F)n2)o1)N1CCc2[nH]cnc2[C@H]1c1cc2cccc(C(F)(F)F)n2n1 [Example 1036, (S)-(5-(1-(difluoromethyl)-1H-pyrazol-3-yl)-1,3,4-oxadiazol-2-yl)(4-(7-(trifluoromethyl)pyrazolo[1,5-a]pyridin-2-yl)-6,7-dihydro-1H-imidazo[4,5-c]pyridin-5(4H)-yl)methanone] | 0.5 to 1
23 | FC(F)(F)c1cccc2cc([C@@H]3c4nc[nH]c4CCN3c3ncccn3)nn12 [Example 1765, (S)-5-(pyrimidin-2-yl)-4-(7-(trifluoromethyl)pyrazolo[1,5-a]pyridin-2-yl)-4,5,6,7-tetrahydro-1H-imidazo[4,5-c]pyridine] | 0.5 to 1
24 | Cc1ncccc1-c1nnc(C(=O)N2CCc3[nH]cnc3[C@@H]2c2cc3cccc(C(F)F)n3n2)o1 [Example 1501, (R)-(4-(7-(difluoromethyl)pyrazolo[1,5-a]pyridin-2-yl)-6,7-dihydro-1H-imidazo[4,5-c]pyridin-5(4H)-yl)(5-(2-methylpyridin-3-yl)-1,3,4-oxadiazol-2-yl)methanone] | > 5
25 | CC(C)(C)c1nnc(C(=O)N2CCc3[nH]cnc3[C@H]2c2cc3c(OC(F)F)cccn3n2)o1 [Example 1687, (S)-(5-(tert-butyl)-1,3,4-oxadiazol-2-yl)(4-(4-(difluoromethoxy)pyrazolo[1,5-a]pyridin-2-yl)-6,7-dihydro-1H-imidazo[4,5-c]pyridin-5(4H)-yl)methanone] | 0.5 to 1
